From US9242984B2, “Pyrazolyl derivatives as Syk inhibitors” (Merck Sharp & Dohme Corp., priority 2012, dated 2016)

What follows are compounds tested against T1, recombinant human Syk (GST-hSyk fusion protein) (Homo sapiens, UniProt P43405) (assay: Homogeneous Time-Resolved Fluorescence (HTRF) assay for the recombinant human Syk enzyme). Settings: IC50 class; 10-dose titration, 25 μM ATP; read-out: rhSYK Activity.
T1 construct: purchased Carna Biosciences 08-176
Format: biochemical
Procedure, shortened: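 IC50 came from a four-parameter fit over ten doses, 10 μM to 0.508 nM, with HTRF read-out (Eu-anti-pTyr antibody, SA-APC, EDTA stop, 30 min). The enzyme, 5 pM GST-hSyk, met compound for 10 min, then phosphorylated 250 nM biotin-peptide with 25 μM ATP and 5 mM Mg for 45 min at room temperature, pH 7.5.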

Structure (SMILES) | IC50 [nM]
Cc1cc(Nc2nccc(C(F)(F)F)n2)cc(-c2cnn(C[C@H](O)C(N)=O)c2)c1 [Example 7.4, (2S)-2-hydroxy-3-[4-(3-methyl-5-{[4-(trifluorometh-yl)pyrimidin-2-yl]amino}-phenyl)-1H-pyrazol-1-yl]propanamide] | ≤ 100
Cc1cc(Nc2nccc(C(F)(F)F)n2)cc(-c2ccn(C)n2)c1 [Example 2.46, N-[3-methyl-5-(1-methyl-1H-pyrazol-3-yl)phenyl]-4-(trifluoromethyl)-pyrimidin-2-amine] | ≤ 100
Cc1cc(Nc2nccc(C(F)F)n2)cc(-c2cnn(CC3CC(=O)NC3=O)c2)c1 (stereo not shown) [Example 2.71, 3-{[4-(3-{[4-(difluoromethyl)pyrimidin-2-yl]amino}-5-methylphenyl)-1H-pyrazol-1-yl]methyl}pyrrolidine-2,5-dione] | ≤ 100
Cc1cc(Nc2nccc(C(F)(F)F)n2)cc(-c2cnn(CC3OC(=O)NC3C)c2)c1 (single isomer, unassigned) [Example 23.2, 4-methyl-5-{[4-(3-methyl-5-{[4-(trifluoromethyl)pyrimidin-2-yl]amino}phenyl)-1H-pyrazol-1-yl]methyl}-1,3-oxazolidin-2-one] | ≤ 100
Cc1cc(Nc2nccc(C(C)(F)F)n2)cc(-c2cnn(CC3OC(=O)NC3(C)C)c2)c1 (stereo not shown) [Example 3.101, 5-{[4-(3-{[4-(1,1-difluoroethyl)pyrimidin-2-yl]amino}-5-methylphenyl)-1H-pyrazol-1-yl]methyl}-4,4-dimethyl-1,3-oxazolidin-2-one] | ≤ 100
COCC(C)(C)NC(=O)Cn1cc(-c2cc(C)cc(Nc3nccc(C(F)(F)F)n3)c2)cn1 [Example 3.12, N-(2-methoxy-1,1-dimethylethyl)-2-[4-(3-methyl-5-{[4-(trifluoromethyl)pyrimidin-2-yl]amino}phenyl)-1H-pyrazol-1-yl]acetamide] | 100 to 1000

Next, values leading:

IC50 [nM] | Structure (SMILES)
≤ 100 | Cc1cc(Nc2nccc(C(F)(F)F)n2)cc(-c2cnn(CC3(C)CNC(=O)O3)c2)c1 (stereo not shown) [Example 3.117, 5-methyl-5-{[4-(3-methyl-5-{[4-(trifluoromethyl)pyrimidin-2-yl]amino}phenyl)-1H-pyrazol-1-yl]methyl}-1,3-oxazolidin-2-one]
≤ 100 | Cc1cc(Nc2nccc(C)n2)cc(-c2cnn(CC3(C)CNC(=O)O3)c2)c1 (stereo not shown) [Example 3.121, 5-methyl-5-[(4-{3-methyl-5-[(4-methylpyrimidin-2-yl)amino]phenyl}-1H-pyrazol-1-yl)methyl]-1,3-oxazolidin-2-one]
≤ 100 | O=C1NCC(Cn2cc(-c3cccc(Nc4nccc(C(F)F)n4)c3)cn2)O1 (stereo not shown) [Example 2.65, 5-{[4-(3-{[4-(difluoromethyl)pyrimidin-2-yl]amino}phenyl)-1H-pyrazol-1-yl]methyl}-1,3-oxazolidin-2-one]
≤ 100 | Cc1cc(Nc2nccc(C(F)(F)F)n2)cc(-c2cnn(Cc3cc(C)no3)c2)c1 [Example 3.25, N-(3-methyl-5-{1-[(3-methylisoxazol-5-yl)methyl]-1H-pyrazol-4-yl}phenyl)-4-(trifluoromethyl)-pyrimidin-2-amine]
≤ 100 | Cc1cc(Nc2nccc(C(F)(F)F)n2)cc(-c2cnn(CC3NC(=O)OC3C)c2)c1 (stereo not shown) [Example 3.107, 5-methyl-4-{[4-(3-methyl-5-{[4-(trifluoromethyl)pyrimidin-2-yl]amino}phenyl)-1H-pyrazol-1-yl]methyl}-1,3-oxazolidin-2-one]
≤ 100 | Cc1cc(Nc2nccc(C(F)F)n2)cc(-c2cnn(CC3(C)CNC(=O)O3)c2)c1 (stereo not shown) [Example 3.124, 5-{[4-(3-{[4-(difluoromethyl)pyrimidin-2-yl]amino}-5-methylphenyl)-1H-pyrazol-1-yl]methyl}-5-methyl-1,3-oxazolidin-2-one]
≤ 100 | Cc1cc(Nc2nccc(C(F)(F)F)n2)cc(-c2cnn(CC(=O)N3[C@H](C)COC[C@H]3C)c2)c1 [Example 3.15, N-[3-(1-{2-[(3r,5r)-3,5-dimethylmorpholin-4-yl]-2-oxoethyl}-1H-pyrazol-4-yl)-5-methylphenyl]-4-(trifluoromethyl)-pyrimidin-2-amine]
